{"source": "patent US8618305B2", "about": "“Sorafenib dimethyl sulphoxide solvate” (Ranbaxy Laboratories Limited, priority 2010, dated 2013)", "key": {"[1]": {"assay": "Hygroscopicity of the solid", "assay_type": "physicochemical", "settings": "free-flowing solid"}}, "note": "Where two headings read alike, the source gives them in different places."}
{"compound": "CNC(=O)c1cc(Oc2ccc(NC(=O)Nc3ccc(Cl)c(C(F)(F)F)c3)cc2)ccn1", "note": "[Sorafenib dimethyl sulphoxide solvate, dimethyl sulphoxide solvate of 4-(4-{3-[-4-chloro-3-(trifluoromethyl)phenyl]ureido}phenoxy)-N^2-methylpyridine-2-carboxamide]", "values": [{"measurement": "Change on heating in a vacuum oven", "setting": "about 120° C. and about 135° C. for about 4 hours", "result": "Desolvation of sorafenib dimethyl sulphoxide solvate to sorafenib free base was observed"}, {"measurement": "Change on heating in a vacuum oven", "setting": "about 4 hours, temperature range of about 45° C. up to 110° C.", "result": "No change was observed"}, {"measurement": "Temperature up to which the solid is stable towards heating", "setting": "under reduced pressure", "result": "≤ 110", "unit": "°C"}, {"measurement": "Hygroscopicity", "setting": "[1]", "result": "non-hygroscopic"}]}
